Data on 14 compounds can be found in patent publication US11104689B2, “Influenza virus replication inhibitor and use thereof” (SUNSHINE LAKE PHARMA CO., LTD., priority 2017, dated 2021).

Like-named read-outs stand apart in the source and are kept apart here.

Series [1] in a line: Cytotoxicity test group of the CPE assay (no virus added, CCK-8 kit). The series is classed as cell-based. As to conditions: dog, MDCK cells. As to the method: (§1) Experimental Procedures: MDCK cells were seeded in a 384-well plate with 2000 cells per wells, which were incubated overnight at 37° C., 5% CO2; The culture medium was changed to the fresh culture solution containing different concentrations of the compound and virus H1N1 A/Weiss/43 at a multiplicity of infection to yield 80-95% CPE on the second day. The test compound was serially diluted from the highest concentration of 100 nM in 1:3 dilutions to give 8 concentrations: 100 nM, 33.33 nM, 11.11 nM, 3.70 nM, 1.23 nM, 0.41 nM, 0.14 nM, 0.05 nM. At the same time, a non-medicated virus control group and a non-medicated cell control group free of virus were set up. No virus was added in the cytotoxicity test group but medium was added for replacement. Each group was set in duplicate, and incubated at 37° C. in 5% CO2. The cell activity was measured according to the CCK-8 kit (source: Shanghai Liji Biotechnology Co., Ltd. #D3100L4057) and the data would be used to calculate the antiviral and cytotoxicity of the compound. Data were analyzed by GraphPad Prism, CPE inhibition rate was calculated, and the EC50 was obtained according to the fitted curve. CPE inhibition rate=(absorbance of dosing hole-absorbance of virus control well)/(absorbance of cell control well-virus control well)×100%

In series [2] the test system is influenza virus (A/Weiss/43(H1N1)). Briefly: Cytopathic effect assay (CPE assay), antiviral activity. The class given is cell-based. As to conditions: MDCK cells, CPE inhibition, CCK-8, read-out: EC50 against influenza virus (A/Weiss/43(H1N1)) in vitro. (In general: Protection from cytopathic effect is a common read-out in antiviral testing.)
The test system of a further series is MDCK cells. As to the kind of experiment: Cytotoxicity test group of the CPE assay (no virus added, CCK-8 kit). The class given is cell-based. How it is done:
as §1
(In general: Tetrazolium dyes change colour on reduction, which living cells bring about.)

On the set-up of series [3]: species or system Beagle dogs. The conditions noted are these: male, beagle, dog, in vivo. As to the method: Pharmacokinetic studies of compounds of the invention in healthy adult male SD rats, dogs or monkeys were evaluated. The compound of the present invention was administered in form of a solution containing 10% DMSO+10% Kolliphor HS 15+80% physiological saline solution. For intravenous (iv) administration, animals were given with a dose of 0.2 or 1 mg/kg and blood was taken at 0.083, 0.25, 0.5, 1.0, 2.0, 5.0, 7.0, and 24 hours (0.3 mL) and centrifugated for 10 minutes at 3,000 or 4,000 rpm. For oral (po) administration, animals were given with a dose of 1 or 5 mg/kg, taken at 0.25, 0.5, 1.0, 2.0, 5.0, 7.0, and 24 hours (0.3 mL) and centrifugated at 3,000 or 4,000 rpm for 10 minutes. The plasma solution was collected and stored at −20° C. or −70° C. until the LC/MS/MS analysis was performed.

One may read the CC50 as the concentration giving 50% cytotoxicity. On to `O=C1c2c(O)c(=O)ccn2N([C@H]2c3ccc(F)c(F)c3CSc3c2ccc2ccccc32)[C@@H]2COCCN12` (racemic) [Example 7, (R)-12-((S)-10,11-difluoro-7,12-dihydrobenzo [e]naphtho [1,2-b]thiepin-7-yl)-7-hydroxy-3,4,12,12a-tetrahydro-11H-[1,4] oxazino [3,4-c] pyrido [2,1-f] [1,2,4] triazine-6,8-dione and (S)-12-((R)-10,11-difluoro-7,12-dihydrobenzo[e]naphtho[1,2-b]thiepin-7-yl)-7-hydroxy-3,4,12,12a-tetrahydro-1H-[1,4]oxazino[3,4-c]pyrido[2,1-f][1,2,4]triazine-6,8-dione], for which, in series [1], the CC50 was more than 100000 nM.

For the compound `O=C1c2c(O)c(=O)ccn2N([C@H]2c3ccc(F)cc3-c3ccsc3-c3cc(F)ccc32)[C@@H]2COCCN12` [Compound (17-1), (R)-12-((S)-5,11-difluoro-8H-dibenzo[3,4:6,7]cyclohepta[1,2-b]thiophen-8-yl)-7-hydroxy-3,4,12,12a-tetrahydro-1H-[1,4]oxazino[3,4-c]pyrido[2,1-f][1,2,4]triazine-6,8-dione], the CC50 in series [1] came out at 77500 nM. Moreover, in series [2] (H1N1), the EC50 is 18.8 nM.

On to `O=C1c2c(O)c(=O)ccn2N([C@H]2c3ccc(F)cc3-c3ccsc3-c3ccccc32)[C@@H]2COCCN12` [Compound (20-1), (R)-12-((S)-5-fluoro-8H-dibenzo [3,4:6,7]cyclohept[1,2-b]thiophen-8-yl)-7-hydroxy-3,4,12,12a-tetrahydro-1H-[1,4]oxazino[3,4-c]pyrido[2,1-f][1,2,4]triazine-6,8-diketone], for which, in series [2], the EC50 was 4.9 nM.

In the case of `O=C1c2c(O)c(=O)ccn2N([C@@H]2c3ccccc3-c3sccc3-c3c(F)cccc32)[C@@H]2COCCN12` [Compound (21-2), (12aR)-12-((8S)-4-fluoro-8H-dibenzo [3,4:6,7]cyclohept[1,2-b]thiophen-8-yl)-7-hydroxy-3,4,12,12a-tetrahydro-1H-[1,4]oxazino[3,4-c]pyrido[2,1-f] [1,2,4]triazine-6,8-dione], the EC50 in series [2] (H1N1) is 18.9 nM.

`O=C1c2c(O)c(=O)ccn2N(C2c3ccccc3-c3ccsc3-c3c2ccc(F)c3F)C2COCCN12` (stereo not shown) [Example 11, 12-(11,12-Difluoro-8H-dibenzo [3,4:6,7]cycloheptyl [1,2-b]thiophen-8-yl)-7-Hydroxy-3,4,12, 12a-tetrahydro-1H-[1,4]oxazino[3,4-c]pyrido[2,1-f][1,2,4]triazine-6,8-dione]: in series [2] (H1N1), the EC50 came to 48.7 nM.

Consider `O=C1c2c(O)c(=O)ccn2N(C2c3ccccc3-c3cc(Cl)sc3-c3ccccc32)[C@@H]2COCCN12` (stereo partly drawn) [Example 15, (12aR)-12-(2-chloro-8H-dibenzo [3,4:6,7]cyclohept[1,2-b]thiophen-8-yl)-7-hydroxy-3,4,12,12a-tetrahydro-1H-[1,4] oxazino [3,4-c] pyrido [2,1-f] [1,2,4]triazine-6,8-dione], for which the CC50 in series [1] was 39400 nM.

The compound `COc1cccc2c1-c1ccsc1-c1ccccc1C2N1[C@@H]2COCCN2C(=O)c2c(O)c(=O)ccn21` (stereo in doubt) [Example 19, (12aR)-7-hydroxy-12-((8R)-4-methoxy-8H-dibenzo [3,4:6,7]cyclohept[1,2-b]thiophen-8-yl)-3,4,12,12a-tetrahydro-1H-[1,4]oxazino[3,4-c]pyrido[2,1-f] [1,2,4]triazine-6,8-dione] gave a CC50 in series [1] of more than 100000 nM. In series [2] (H1N1), the EC50 was determined as 34.1 nM.

In turn, `O=C1c2c(O)c(=O)ccn2N([C@H]2c3ccccc3-c3ccsc3-c3ccccc32)[C@@H]2COCCN12` (racemic) [Example 2, (R)-12-((S)-8H-dibenzo [3,4:6,7]cycloheptyl [1,2-b]thiophen-8-yl)-7-hydroxy-3,4,12,12a-tetrahydro-1H-[1,4] oxazino[3,4-c] pyrido [2,1-f] [1,2,4] triazine-6,8-dione and (S)-12-((R)-8H-dibenzo [3,4:6,7]cycloheptyl [1,2-b]thiophen-8-yl)-7-hydroxy-3,4,12,12a-tetrahydro-1H-[1,4] oxazino[3,4-c] pyrido [2,1-f][1,2,4] triazine-6,8-dione] yielded a CC50 in series [1] of more than 100000 nM. In addition, the EC50 in series [2] (H1N1) came to 22.8 nM.

`O=C1c2c(O)c(=O)ccn2N(C2c3ccccc3SCc3c2ccc2ccccc32)C2COCCN12` (stereo not shown) [Example 5, 12-(7,13-Dihydrobenzo [b]naphtho [2,1-e]thiepin-7-yl)-7-hydroxy-3,4,12,12a-tetrahydro-1H-[1,4] oxazino [3,4-c] pyrido [2,1-f] [1,2,4]triazine-6,8-dione]: the 50% cytotoxic concentration (CC50) in series [1] was more than 100000 nM.

For `O=C1c2c(O)c(=O)ccn2N([C@H]2c3ccc(F)cc3-c3ccsc3-c3ccccc32)[C@@H]2COCCN12` (mixture of isomers) [Example 37, The mixture of (R)-12-((S)-5-fluoro-8H-dibenzo[3,4:6,7]cyclohepta[1,2-b]thiophen-8-yl)-7-hydroxy-3,4,12,12a-tetrahydro-1H-[1,4]oxazino[3,4-c]pyrido[2,1-f][1,2,4]triazine-6,8-dione and (S)-12-((R)-5-fluoro-8H-dibenzo [3,4:6,7]cyclohepta[1,2-b]thiophen-8-yl)-7-hydroxy-3,4,12,12a-tetrahydro-1H-[1,4]oxazino [3,4-c]pyrido [2,1-f][1,2,4]triazine-6,8-dione], it took 104000 nM to reach half-maximal cytotoxicity in series [1] (CC50). In series [2] (H1N1), the EC50 was found to be 14.9 nM.

Compound `O=C1c2c(O)c(=O)ccn2N([C@H]2c3ccccc3-c3cnoc3-c3ccccc32)[C@@H]2COCCN12` [Example 38, 12-(8H-Dibenzo [3,4:6,7]cyclohepta[1,2-d]isoxazol-8-yl)-7-hydroxy-3,4,12,12a-tetrahydro-1H-[1,4]oxazino[3,4-c]pyrido[2,1-f] [1,2,4]triazin-6,8-dione] returned a CC50 in series [1] of more than 100000 nM. Besides, the EC50 in series [2] (H1N1) amounted to 38 nM.

Turning to “The mixture of (12aR)-12-((8R)-4-fluoro-8H-dibenzo [3,4:6,7]cyclohepta[1,2-b]thiophen-8-yl)-7-hydroxy-3,4,12,12a-tetrahydro-1H-[1,4]oxazino [3,4-c] pyrido [2,1-f] [1,2,4]triazine-6,8-dione and (12aR)-12-((8S)-4-fluoro-8H-dibenzo [3,4:6,7] cyclohept[1,2-b]thiophen-8-yl)-7-hydroxy-3,4,12,12a-tetrahydro-1H-[1,4]oxazino [3,4-c] pyrido [2,1-f] [1,2,4]triazine-6,8-dione [Example 36]”, the CC50 in the series with MDCK cells amounted to 36000 nM. Further, in series [2], the EC50 is 9.87 nM.

A word on the Cmax: it is the peak of the concentration-time curve. A word on the clearance: it is the rate of elimination divided by the concentration. In the case of `COC(=O)OCOc1c2n(ccc1=O)N([C@H]1c3ccc(F)cc3-c3ccsc3-c3ccccc31)[C@@H]1COCCN1C2=O` [Example 28, methyl (((R)-12-((S)-5-fluoro-8H-dibenzo [3,4:6,7]cyclohept[1,2-b]thiophen-8-yl)-6,8-dioxo 3,4,6,8,12,12a-hexahydro-1H-[1,4]oxazino [3,4-c]pyrido [2,1-f] [1,2, 4]triazin-7-yl)oxy)methyl carbonate], the Conversion in animals result in series [3] is given as “converted to the compound of Example 21 (21-1) in animals”. Moreover, in series [3] (iv, 0.2 mg/kg), the AUCINF was found to be 1030 ng·h/mL, the AUClast worked out at 996 ng·h/mL, the Cmax amounted to 144 ng/mL and the clearance is 3.22 mL/min/kg. In series [3] (iv, 0.2 mg/kg), this compound registered a t1/2 of 4.91 h. For the same compound, in series [3] (po, 1 mg/kg), the AUCINF came out at 2580 ng·h/mL, the AUClast turned out to be 2430 ng·h/mL, the Cmax is 311 ng/mL and the F worked out at 57.6%. In addition, the t1/2 in series [3] (po, 1 mg/kg) amounted to 5.72 h.

The compound `O=C1c2c(O)c(=O)ccn2N([C@H]2c3ccccc3-c3ccsc3-c3ccccc32)[C@H]2COCCN12` (racemic) [Example 3, (S)-12-((S)-8H-dibenzo [3,4:6,7]cycloheptyl [1,2-b]thiophen-8-yl)-7-hydroxy-3,4,12,12a-tetrahydro-1H-[1,4] oxazino [3,4-c] pyrido [2,1-f] [1,2,4] triazine-6,8-dione and (R)-12-((R)-8H-dibenzo [3,4:6,7]cycloheptyl [1,2-b]thiophen-8-yl)-7-hydroxy-3,4,12,12a-tetrahydro-1H-[1,4] oxazino [3,4-c] pyrido [2,1-f][1,2,4] triazine-6,8-dione] gave a CC50 in series [1] of more than 100000 nM. In addition, the EC50 in series [2] (H1N1) was 23.5 nM.
